Measurements from patent US20240294526A1, “FUSED TRI-CYCLIC COMPOUND AS A PDE3/PDE4 DUAL INHIBITOR” (CHIA TAI TIANQING PHARMACEUTICAL GROUP CO., LTD., priority 2018, published 2024).

How the values were obtained:
[1] = reported; cited from earlier work
[2] = reported; cited from earlier work; remark: listed apart in the source
[3] = molecular target: recombinant human PDE3A (Homo sapiens (Human), UniProt Q14432); assay: In vitro inhibitory activity against PDE 3A enzyme (fluorescence polarization); assay type: biochemical; settings: 1 μM cAMP
Sequence of recombinant human PDE3A (Q14432 669-1141 limits assumed): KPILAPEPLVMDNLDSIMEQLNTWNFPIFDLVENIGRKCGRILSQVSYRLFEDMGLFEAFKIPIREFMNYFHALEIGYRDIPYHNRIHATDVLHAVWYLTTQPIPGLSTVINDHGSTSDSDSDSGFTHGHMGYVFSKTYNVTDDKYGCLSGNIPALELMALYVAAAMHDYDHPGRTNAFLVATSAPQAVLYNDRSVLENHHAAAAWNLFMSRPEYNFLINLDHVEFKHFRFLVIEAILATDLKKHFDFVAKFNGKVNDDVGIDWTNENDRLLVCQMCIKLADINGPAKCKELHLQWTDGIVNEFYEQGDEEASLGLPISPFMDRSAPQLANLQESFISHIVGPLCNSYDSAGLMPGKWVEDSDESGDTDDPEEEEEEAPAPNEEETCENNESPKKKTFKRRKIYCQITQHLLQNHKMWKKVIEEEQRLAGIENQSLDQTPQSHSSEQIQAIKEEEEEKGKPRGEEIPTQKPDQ
Description: (§1) Experimental objective: to determine the AMP/GMP expression based on fluorescence polarization, i.e., to trace binding of AMP/GMP to antibody so as to indicate enzyme activity.
Experimental buffer solution: 10 mM Tris-HCl (pH 7.5), 5 mM MgCl2, 0.01% Brij 35, 1 mM Dithiothreitol (DTT), and 1% DMSO.
Enzyme: recombinant human PDE3A (Gene accession number: NM_000921; amino acid 669-end) was expressed by baculovirus in Sf9 insect cells using an N-terminal GST tag, with molecularweight being 84 kDa.
(§2) Enzyme substrate: 1 μM cAMP
(§3) Detection: Transcreener® AMP2/GMP2 antibody and AMP2/GMP2 AlexaFluor633 tracer.
(§4) • 1. The recombinant human PDE3A enzyme and enzyme substrate (1 μM cAMP) were each dissolved in newly-prepared experimental buffer solution; • 2. The PDE3A enzyme buffer solution was transferred into reaction wells; • 3. The compound which was dissolved in 100% DMSO was added to the reaction wells containing PDE3A enzyme buffer solution by acoustic technique (echo 550; millilambda range) and the mixture was incubated for 10 minutes at room temperature; • 4. The enzyme substrate buffer solution was added to the above reaction wells to initiate reaction; • 5. The resulting mixture was incubated at room temperature for 1 hour; • 6. The detection mixture (Transcreener® AMP2/GMP2 antibody and AMP2/GMP2 AlexaFluor633 tracer) was added to stop the reaction, and the resulting mixture was incubated for 90 minutes while slowly mixing. The measurement range of fluorescence polarization was Ex/Em=620/688.
(§5) Data analysis: the fluorescence polarization signal was converted to nM based on AMP/GMP standard curve and the percentage enzyme activity relative to DMSO control calculated by Excel. GraphPad Prism was used for curve fitting (drawing medical icon).

[4] = molecular target: recombinant human PDE4B (Homo sapiens (Human), UniProt Q07343); assay: In vitro inhibitory activity against PDE 4B enzyme (fluorescence polarization); assay type: biochemical; settings: 1 μM cAMP
Sequence of recombinant human PDE4B (Q07343 305-736 limits assumed): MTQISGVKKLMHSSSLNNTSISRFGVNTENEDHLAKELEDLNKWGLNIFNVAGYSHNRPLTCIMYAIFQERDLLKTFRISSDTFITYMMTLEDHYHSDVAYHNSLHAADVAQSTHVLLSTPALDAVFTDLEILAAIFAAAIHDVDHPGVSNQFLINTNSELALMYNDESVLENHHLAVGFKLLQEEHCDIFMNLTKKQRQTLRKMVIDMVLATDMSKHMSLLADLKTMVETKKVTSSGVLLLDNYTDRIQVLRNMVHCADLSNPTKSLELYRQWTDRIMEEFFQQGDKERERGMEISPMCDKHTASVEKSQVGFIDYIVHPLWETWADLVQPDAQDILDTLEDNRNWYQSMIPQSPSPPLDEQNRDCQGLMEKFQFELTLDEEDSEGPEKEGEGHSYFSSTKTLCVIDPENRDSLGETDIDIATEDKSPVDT
Description: as §1
Experimental buffer solution: 10 mM Tris-HCl (pH 7.5), 5 mM MgCl2, 0.01% Brij 35, 1 mM DTT, and 1% DMSO.
Enzyme: recombinant human PDE4B (Gene accession number: NM_002600; amino acid 305-end) was expressed by baculovirus in Sf9 insect cells using an N-terminal GST tag, with molecularweight being 78 kDa.
as §2, §3
as §4, with “PDE4B” for “PDE3A”, “newly prepared” for “newly-prepared”
as §5

[5] = Pharmacokinetic experiment in beagle dogs; assay type: in vivo
Description: In this study, male beagle dogs were selected as test animals, and liquid chromatography-tandem mass spectrometry (LC-MS/MS) method was used for quantitatively measuring the drug concentration in plasma of beagle dogs at different time points after intravenous injection or oral administration of compound WX036 so as to evaluate the pharmacokinetic characteristics of the compound WX036 in beagle dogs.
The clear solution of compound WX036 was injected into two 10-12 kg beagle dogs via the cephalic vein or saphenous vein, and the clear solution of test compound was administered intragastrically to two 10-12 kg beagle dogs (overnight fasted). The animals were all subjected to approximately 500 μL of blood collection each time from peripheral veins at 0.0333, 0.0833, 0.25, 0.5, 1, 2, 4, 6, 8, and 24 hours post-dose, and the blood was transferred into commercial centrifuge tubes containing 0.85-1.15 mg of K2 EDTA*2H2O anticoagulant, and plasma was taken by centrifugation at 3000 g for 10 minutes at 4° C. The plasma concentration was measured by LC-MS/MS method, and the relevant pharmacokinetic parameters were calculated by WinNonlin™ Version 6.3 (Pharsight, Mountain View, CA) pharmacokinetic software using non-compartmental model linear logarithmic trapezoid method.

Row | SMILES | IC50 [3] [nM] | IC50 [4] [nM] | further results
1 | COc1cc2c(cc1OC)-c1c/c(=N\c3c(C)cc(C)cc3C)n(CCNC(N)=O)c(=O)n1CC2 [RPL554] | – | – | solubility [1]: poor; plasma clearance [2]: high
2 | COc1cc2c(cc1OC)-c1cc(Oc3c(C(C)C)cccc3C(C)C)nc(=O)n1CC2 [RPL565] | – | – | solubility [1]: poor; plasma clearance [2]: high
3 | CCOc1cc2c(cc1OC)-c1c/c(=N\c3c(C)cc(C)cc3C)n(CCNc3nc[nH]n3)c(=O)n1CCC2 [WX004] | 0.63 | 0.12 | –
4 | CCOc1cc2c(cc1OC)-c1c/c(=N\c3c(C)cc(C)cc3C)n(CCNC(=O)c3cnn[nH]3)c(=O)n1CC2 [WX016] | – | 0.24 | –
5 | CCOc1cc2c(cc1OC)-c1c/c(=N\c3c(C)cc(C)cc3C)n(CCNC(=O)c3ncc[nH]3)c(=O)n1CC2 [WX017] | – | 0.43 | –
6 | CCOc1cc2c(cc1OC)-c1c/c(=N\c3c(C)cc(C)cc3C)n(CCNC(=O)c3ccn[nH]3)c(=O)n1CC2 [WX018] | – | 0.05 | –
7 | CCOc1cc2c(cc1OC)-c1c/c(=N\c3c(C)cc(C)cc3C)n(CCNC(=O)c3ncco3)c(=O)n1CC2 [WX019] | – | 0.48 | –
8 | CCOc1cc2c(cc1OC)-c1c/c(=N\c3c(C)cc(C)cc3C)n(CCNC(=O)c3ncon3)c(=O)n1CC2 [WX020] | – | 0.47 | –
9 | CCOc1cc2c(cc1OC)-c1c/c(=N\c3c(C)cc(C)cc3C)n(CCNC(=O)c3cnc[nH]3)c(=O)n1CC2 [WX021] | – | 1.1 | –
10 | CCOc1cc2c(cc1OC)-c1c/c(=N\c3c(C)cc(C)cc3C)n(CCNC(=O)c3[nH]nnc3N)c(=O)n1CC2 [WX025] | – | 0.44 | –
11 | CCOc1cc2c(cc1OC)-c1c/c(=N\c3c(C)cc(C)cc3C)n(CCNC(=O)c3[nH]nnc3OC)c(=O)n1CC2 [WX026] | – | 2.5 | –
12 | CCOc1cc2c(cc1OC)-c1c/c(=N\c3c(C)cc(C)cc3C)n(CCNC(=O)c3c(O)nnn3C)c(=O)n1CC2 [WX036] | – | – | Area under plasma concentration-time curve (0-inf) ([5]; intravenous injection 0.5 mg/kg): 0.21 µM·h; Area under plasma concentration-time curve (0-inf) ([5]; oral administration 3 mg/kg): 0.123 µM·h; Peak concentration ([5]; oral administration 3 mg/kg): 59.4 nM; Time to peak ([5]; oral administration 3 mg/kg): 0.6 h
13 | CCOc1cc2c(cc1OC)-c1c/c(=N\c3c(C)cc(C)cc3C)n(CCNC(=O)c3[nH]ncc3OC)c(=O)n1CC2 [WX037] | – | 1.7 | –
14 | CCOc1cc2c(cc1OC)-c1c/c(=N\c3c(C)cc(C)cc3C)n(CCNC(=O)c3nnc[nH]3)c(=O)n1CCC2 [WX047] | 0.1 | 0.16 | –
15 | CCOc1cc2c(cc1OC)-c1c/c(=N\c3c(C)cc(C)cc3C)n(CCNC(=O)c3cnn[nH]3)c(=O)n1CCC2 [WX048] | 0.03 | 0.27 | –
16 | CCOc1cc2c(cc1OC)-c1c/c(=N\c3c(C)cc(C)cc3C)n(CCNC(=O)c3cnc[nH]3)c(=O)n1CCC2 [WX049] | 0.3 | 0.05 | –
17 | CCOc1cc2c(cc1OC)-c1c/c(=N\c3c(C)cc(C)cc3C)n(CCNC(=O)c3ccn[nH]3)c(=O)n1CCC2 [WX050] | 1.1 | 0.24 | –
18 | CCOc1cc2c(cc1OC)-c1c/c(=N\c3c(C)cc(C)cc3C)n(CCNC(=O)c3ccn[nH]3)c(=O)n1CCO2 [WX052] | 0.5 | 0.18 | –
19 | CCOc1cc2c(cc1OC)-c1c/c(=N\c3c(C)cc(C)cc3C)n(CCNC(=O)c3cnn[nH]3)c(=O)n1CCO2 [WX053] | 0.57 | 1.9 | –
20 | CCOc1cc2c(cc1OC)-c1c/c(=N\c3c(C)cc(C)cc3C)n(CCC(=O)Nc3cnn[nH]3)c(=O)n1CC2 [WX055] | – | 2.1 | –
21 | CCOc1cc2c(cc1OC)-c1c/c(=N\c3c(C)cc(C)cc3C)n(CCC(=O)Nc3ncco3)c(=O)n1CC2 [WX056] | – | 9.1 | –
22 | CCOc1cc2c(cc1OC)-c1c/c(=N\c3c(C)cc(C)cc3C)n(CCC(=O)Nc3cn[nH]c3)c(=O)n1CC2 [WX057] | – | 5.4 | –
